# Measured values taken from article PMC6482291, “Anticonvulsant Activity of Pterostilbene in Zebrafish and Mouse Acute Seizure Tests” (Neurochemical Research, 2019).
# Like-named read-outs stand apart in the source and are kept apart here.
# Experiments:
# [1] = test system: 6 Hz-induced psychomotor seizures in mice; assay: 6 Hz psychomotor seizure threshold test; type: in vivo; conditions: 30 min before test, 95% confidence limits in brackets
# Text: Psychomotor (limbic) seizures were induced by transcorneal stimulation (6 Hz, 0.2 ms rectangular pulse, 3 s duration) generated by a Grass S48 stimulator coupled with a constant current unit CCU1 (both from Grass Technologies, West Warwick, RI, USA). Before stimulation a drop of ocular anesthetic, 1% tetracaine hydrochloride solution, was applied into the animals’ corneas. The electrodes were soaked in saline to ensure the good electrical contact. During the stimulation animals were restrained manually and immediately after the stimulation were placed in a Plexiglas box for observation of presence or absence of the psychomotor seizures. These seizures were characterized by immobilization or stun, often associated with rearing, forelimb clonus, twitching of vibrissae and elevated tail (Straub-tail), lasting at least 10 s from the stimulation. Lack of the above symptoms or their cessation within 10 s from the stimulation was considered as absence of seizure activity.
# In the present study two 6 Hz-induced psychomotor seizure tests were performed: (1) the 6 Hz psychomotor seizure threshold test which employed stimulation at varied current intensities, and (2) the 6 Hz psychomotor seizure test with supramaximal stimulation at 32 mA and 44 mA.
# In the 6 Hz psychomotor seizures threshold test, threshold current intensity (CS50 in mA) was estimated in groups of 20 animals according to the above mentioned up-and-down method.
# [2] = test system: maximal electroshock seizures; assay: MES test (supramaximal stimulation); type: in vivo; conditions: ED50 could not be determined
# [3] = Determination of PTE in mouse serum and brain tissue and pharmacokinetic analysis; type: in vivo; conditions: mice, 50 mg/kg ip; for Kp: brain/serum, ip, 50 mg/kg; for concentration at 15 min / concentration at 30 min / concentration at 60 min / concentration at 120 min / concentration at 240 min: mean ± SEM; for MRT: read-out: MRT (mean residence time); for half-life: read-out: t0.5 λz (terminal half-life) (converted); for Tmax: read-out: time of peak concentration following dosing (converted); for k el: read-out: λz (terminal elimination rate constant) (converted)
# Protocol: In order to isolate PTE from biological samples, brains were homogenized in distilled water (1:4, w/v) with a tissue homogenizer TH220 (Omni International, Inc., Warrenton, VA, USA). Aliquots of 0.2–0.3 ml of serum or 0.5–1 ml of brain homogenate were spiked with 10 µl of internal standard (IS) solution containing clonazepam at concentration of 10 µg/ml and vortexed (Reax top, Heidolph, Germany) for 10 s. Both serum samples and brain homogenates were extracted with 3 ml of a mixture of ethyl acetate:hexane (30:70, v/v) for 20 min on a shaker (VXR Vibrax, IKA, Germany). After centrifugation (Universal 32, Hettich, Germany) at 3000 rpm for 15 min, the organic layers ware transferred to new tubes and evaporated to dryness at 37 °C under a gentle stream of nitrogen. The residues were dissolved in 100 µl of methanol and aliquots of 10–50 µl of the solution were injected into the HPLC system. The analysis was performed on a 250 × 4.6 mm LiChrospher®100 RP-18 column with a particle size of 5 µm (Merck, Darmstadt, Germany) protected with a guard column (4 × 4 mm) with the same packing material. The mobile phase was composed of deionized water and acetonitrile mixed at a ratio of 50:50 (v/v) and pumped at a flow rate of 1 ml/min. The column temperature was maintained at 21 °C. The HPLC system (Merck-Hitachi, Darmstadt, Germany) consisted of an L-7100 isocratic pump, an L-7200 autosampler, and a UV variable-wavelength K-2600 detector (Knauer, Berlin, Germany) operating at 321 nm. D-7000 HSM software was used for data acquisition and processing. In these conditions, the retention times of IS and PTE were approximately 5.3 and 12.8 min. The calibration curve constructed by plotting the ratio of the peak area of PTE to IS vs PTE concentrations was linear in the tested concentration ranges. The limit of quantification of the analytical method was 5 ng/ml (or ng/g tissue). […] The extraction efficiencies of PTE and IS were higher than 90%.
# Serum and total brain concentrations of PTE were determined in groups consisted of 8 animals. Pharmacokinetic parameters were calculated using non-compartmental analysis in Phoenix WinNonlin v. 7.0 (Pharsight Corporation, a Certara Company, Princeton, NJ, USA).
# [4] = test system: maximal electroshock seizures in mice; assay: Maximal electroshock seizure threshold (MEST) test; type: in vivo; conditions: for CS50 (seizure threshold): 30 min before test, 95% confidence limits in brackets
# Text: Seizures in the MEST test were evoked by applying a sine-wave alternating current (maximal output voltage 500 V, 50 Hz for 0.2 s) generated by constant current stimulator (Rodent Shocker, Type 221, Hugo Sachs Elektronik, Freiburg, Germany). The stimulation was delivered by saline-socked transcorneal electrodes. Before the stimulation 1% solution of tetracaine hydrochloride was applied into animals’ eyes for local anesthesia. During the stimulation animals were restrained manually and immediately after the stimulation they were placed in the Plexiglas box for observation. The endpoint evaluated in the test was the maximal electroconvulsion which was defined as extension of the hindlimbs above a 90° angle to the torso of animal.
# The threshold for maximal electroshock was determined according to the up-and-down method described by Kimball et al.. The mice in the experimental group were subjected to the stimuli with different current intensities (range of 8–30 mA) which changes in 0.06-log steps. If stimulated mouse respond with seizures, the next mouse in the group was stimulated with current of intensity 0.06-log step lower than the previous one. […] Groups of 20 stimulated animals were used to calculate the threshold current strength (CS50 in mA; the current strength which induces tonic hindlimb extension in 50% of the tested animals) with SEM.
# CS50 values were compared with one-way ANOVA followed by the Tukey’s multiple comparison test.
# [5] = test system: zebrafish larvae; assay: Toxicological assessment (maximum tolerated concentration) in zebrafish larvae; type: in vivo, Danio rerio; conditions: 4 dpf larvae, scored after 2 and 18 h of exposure; highest concentration without death or signs of toxicity
# Protocol: Maximum tolerated concentration (MTC) was evaluated prior to further experiments. Briefly, 4 dpf zebrafish larvae (n = 12/group) were incubated with a range of PTE doses at 28.5 °C, for 18 h. The following parameters were scored after 2 and 18 h of exposure: touch response, posture, edema, morphology, signs of necrosis, swim bladder and heartbeat.
# [6] = test system: GABA-induced chloride currents; set-up: method as in PMID 24462176; conditions: cited from earlier work
# [7] = mouse, brain, read-out: Concentration of PTE in brain tissue
# [8] = mouse, serum, read-out: Concentration of PTE in serum
compound,measurement,setting,value
"COc1cc(/C=C/c2ccc(O)cc2)cc(OC)c1 [PTE, trans-3,5-dimethoxy-4′-hydroxy-trans-stilbene]",CS50 (psychomotor seizure threshold),"[1]; PTE 100 mg/kg ip, p < 0.01",15.56 (14.18–17.08) mA
same,CS50 (psychomotor seizure threshold),"[1]; PTE 200 mg/kg ip, p < 0.001",19.28 (17.15–21.66) mA
same,anticonvulsant activity in the MES test,[2],lack of significant anticonvulsant activity
same,AUC0–24,[3]; brain,11.64 µg·h/g
same,Kp,"[3]; mouse, read-out: brain-to-serum AUC ratio",5.15
same,Kp,"[3]; mouse, read-out: brain-to-serum Cmax ratio",6
same,concentration at 15 min,[3]; [7],13100 ± 1820 ng/g
same,concentration at 30 min,[3]; [7],9920 ± 1100 ng/g
same,concentration at 60 min,[3]; [7],3500 ± 440 ng/g
same,concentration at 120 min,[3]; [7],820 ± 140 ng/g
same,concentration at 240 min,[3]; [7],180 ± 60 ng/g
same,concentration at 15 min,[3]; [8],1760 ± 230 ng/mL
same,concentration at 30 min,[3]; [8],1080 ± 160 ng/mL
same,concentration at 60 min,[3]; [8],550 ± 70 ng/mL
same,concentration at 120 min,[3]; [8],210 ± 30 ng/mL
same,concentration at 240 min,[3]; [8],100 ± 60 ng/mL
same,Cmax,"[3]; mouse, brain",13100 ng/g
same,MRT,"[3]; mouse, brain",1.09 h
same,half-life,"[3]; mouse, brain",1.82 h
same,Tmax,"[3]; mouse, brain",0.25 h
same,k el,"[3]; mouse, brain",0.000106 s⁻¹
same,Cmax,"[3]; mouse, serum",2190 ng/mL
same,AUC(0-t),"[3]; mouse, serum, read-out: AUC0–24",2260 ng·h/mL
same,MRT,"[3]; mouse, serum",2.62 h
same,half-life,"[3]; mouse, serum",2.64 h
same,Tmax,"[3]; mouse, serum",0.25 h
same,k el,"[3]; mouse, serum",7.22e-05 s⁻¹
same,CS50 (seizure threshold),[4]; PTE 100 mg/kg ip,11.40 (10.93–11.87) mA
same,CS50 (seizure threshold),[4]; PTE 200 mg/kg ip,16.22 (14.80–17.78) mA
same,increase of seizure threshold vs negative control,"[4]; PTE 200 mg/kg ip, p < 0.001",over 70%
same,seizure threshold higher than in VPA-treated group (150 mg/kg),"[4]; PTE 200 mg/kg ip, p < 0.05",15%
same,Maximum tolerated concentration (MTC),[5],10 µM
same,effect on GABA-induced chloride currents,[6],enhances
